Test [1] concerns SARS-COV-2. As to the kind of experiment: microbe, parasite or virus in culture. Format: cell-based. The conditions noted are these: Severe acute respiratory syndrome coronavirus 2, 72 h, read-out: ID50 (Antiviral Data).
Test [2] deals with SARS-COV-2 3CLpro (Severe acute respiratory syndrome coronavirus 2, UniProt P0DTD1). Kind of test: biochemical.

With `CC(C)C[C@H](NC(=O)OCc1cccnc1)C(=O)N[C@H](C#N)C[C@@H]1CCCNC1=O`, the IC50 in test [1] was above 100 µM; in test [2] it was 0.0001 to 0.999 µM.
In the case of `COc1cccc2[nH]c(C(=O)N(C)[C@@H](CC(C)C)C(=O)N[C@H](C#N)C[C@@H]3CCNC3=O)cc12`, the IC50 in test [1] was above 100 µM; in test [2], 0.0001 to 0.999 µM.
Turning to `CC(C)C[C@H](NC(=O)OCc1ccccn1)C(=O)N[C@H](C#N)C[C@@H]1CCCNC1=O`, the IC50 is above 100 µM in test [1] and 0.0001 to 0.999 µM in test [2].
`CC(C)C[C@H](NC(=O)OCc1ccncc1)C(=O)N[C@H](C#N)C[C@@H]1CCNC1=O`: the values for the IC50 in test [1] and in test [2] were above 100 µM and 0.0001 to 0.999 µM, respectively.
Consider `CC(C)C[C@H](NC(=O)OCc1ccccc1)C(=O)N[C@H](C#N)C[C@@H]1CCCNC1=O`, for which the IC50 was in the range of 1 to 10 µM in test [1] and 0.0001 to 0.999 µM in test [2].
On the same counts, the results for `CC(C)C[C@@H](C(=O)N[C@H](C#N)C[C@@H]1CCNC1=O)N(C)C(=O)[C@@H](NC(=O)C(F)(F)F)C(C)C` are 10.1 to 100 µM and 1 to 10 µM.
On the same counts, the results for `CC(C)C[C@H](NC(=O)OCc1ccncc1)C(=O)N[C@H](C#N)C[C@@H]1CCCNC1=O` are above 100 µM and 0.0001 to 0.999 µM.
On the same counts, the results for `CC(C)C[C@@H](C(=O)N[C@H](C#N)C[C@@H]1CCNC1=O)N(C)C(=O)[C@@H](NC(=O)C(F)(F)F)C(C)(C)C` are 10.1 to 100 µM and 0.0001 to 0.999 µM.
As for `COc1cccc2[nH]c(C(=O)N[C@@H](CC(C)C)C(=O)N[C@H](C#N)C[C@@H]3CCCNC3=O)cc12`, the IC50 in test [1] lay within 10.1 to 100 µM; in test [2], 1 to 10 µM.
Turning to `C=CCN(C(=O)c1cc2c(OC)cccc2[nH]1)[C@@H](CC(C)C)C(=O)N[C@H](C#N)C[C@@H]1CCNC1=O`, the results for the IC50 in test [1] and in test [2] were above 100 µM and 0.0001 to 0.999 µM, respectively.

For the origin of these results see patent US12466792B2 (priority 2021, dated 2025).
